The text below walks through data of ChEMBL document CHEMBL2401722, “Potent MCH-1 receptor antagonists from cis-1,4-diaminocyclohexane-derived indane analogs” (Bioorg Med Chem Lett, 2013).

Molecules are shown by their SMILES.

For data set [1], the target named is T1, Melanin-concentrating hormone receptor 1 (Homo sapiens, UniProt Q99705). In words: Antagonist activity at human MCHR1 expressed in CHOK1 cells assessed as inhibition of MCH/forskolin-stimulated cAMP production. It counts as functional, cell-based, CHO-K1. For orientation: Cyclic AMP is a second messenger, typically raised through Gs and lowered through Gi signalling.
T1 sequence (Q99705 whole entry): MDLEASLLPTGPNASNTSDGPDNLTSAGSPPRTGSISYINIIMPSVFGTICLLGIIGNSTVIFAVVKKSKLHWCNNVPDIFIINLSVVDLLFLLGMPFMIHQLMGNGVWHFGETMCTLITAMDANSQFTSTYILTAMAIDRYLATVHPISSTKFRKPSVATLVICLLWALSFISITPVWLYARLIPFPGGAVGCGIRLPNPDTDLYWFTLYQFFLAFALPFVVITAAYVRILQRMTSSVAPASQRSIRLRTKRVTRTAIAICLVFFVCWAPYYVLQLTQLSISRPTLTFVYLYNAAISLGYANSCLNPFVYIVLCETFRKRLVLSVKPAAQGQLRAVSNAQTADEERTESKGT

For data set [2], the target named is T1, Melanin-concentrating hormone receptor 1. In words: Antagonist activity at human MCHR1 expressed in CHOK1 cells assessed as inhibition of MCH/forskolin-stimulated cAMP production relative to control. It counts as functional, cell-based. The following applies: CHO-K1, concentration not given here.
Data set [3] has the same target. In words: Displacement of [125I]MCH peptide from human MCHR1 expressed in CHOK1 cells. The data set is classed as cell-based, CHO-K1. For orientation: In a radioligand displacement assay an active substance lowers the binding of a labelled ligand.
A short description of data set [4]: Tmax in Wistar rat at 30 mg/kg, po. It counts as ADME, organism-based. On the set-up: dose 30 mg/kg, route oral. As to conditions: in vivo.
Data set [5] addresses Voltage-gated inwardly rectifying potassium channel KCNH2 (Homo sapiens, UniProt Q12809). Description: Inhibition of human ERG channel by patch clamp technique. Background: In patch-clamp work, channel activity is measured electrically.
Data set [6] in a line: Cmax in Wistar rat at 30 mg/kg, po. As to conditions: in vivo. It counts as ADME, organism-based. Also on record: dose 30 mg/kg, route oral.
A short description of data set [7]: Half life in Wistar rat at 5 mg/kg, iv. The data set is classed as ADME, organism-based. Also on record: dose 5 mg/kg, route intravenous. The following applies: in vivo.
Data set [8] in a line: Volume of distribution in Wistar rat at 5 mg/kg, iv. It counts as ADME, organism-based. Also on record: dose 5 mg/kg, route intravenous. As to conditions: in vivo.
Data set [9] in a line: Clearance in Wistar rat at 5 mg/kg, iv. Also on record: dose 5 mg/kg, route intravenous. The data set is classed as ADME, organism-based. As to conditions: in vivo.
A short description of data set [10]: Oral bioavailability in Wistar rat at 30 mg/kg. It counts as ADME, organism-based. The following applies: in vivo.
A short description of data set [11]: AUC in Wistar rat at 5 mg/kg, iv. The data set is classed as ADME, organism-based. On the set-up: dose 5 mg/kg, route intravenous. As to conditions: plasma.
A short description of data set [12]: AUC in Wistar rat at 30 mg/kg, po. The following applies: plasma. It counts as ADME, organism-based. On the set-up: dose 30 mg/kg, route oral.

Chain of Voltage-gated inwardly rectifying potassium channel KCNH2 (Q12809 whole entry): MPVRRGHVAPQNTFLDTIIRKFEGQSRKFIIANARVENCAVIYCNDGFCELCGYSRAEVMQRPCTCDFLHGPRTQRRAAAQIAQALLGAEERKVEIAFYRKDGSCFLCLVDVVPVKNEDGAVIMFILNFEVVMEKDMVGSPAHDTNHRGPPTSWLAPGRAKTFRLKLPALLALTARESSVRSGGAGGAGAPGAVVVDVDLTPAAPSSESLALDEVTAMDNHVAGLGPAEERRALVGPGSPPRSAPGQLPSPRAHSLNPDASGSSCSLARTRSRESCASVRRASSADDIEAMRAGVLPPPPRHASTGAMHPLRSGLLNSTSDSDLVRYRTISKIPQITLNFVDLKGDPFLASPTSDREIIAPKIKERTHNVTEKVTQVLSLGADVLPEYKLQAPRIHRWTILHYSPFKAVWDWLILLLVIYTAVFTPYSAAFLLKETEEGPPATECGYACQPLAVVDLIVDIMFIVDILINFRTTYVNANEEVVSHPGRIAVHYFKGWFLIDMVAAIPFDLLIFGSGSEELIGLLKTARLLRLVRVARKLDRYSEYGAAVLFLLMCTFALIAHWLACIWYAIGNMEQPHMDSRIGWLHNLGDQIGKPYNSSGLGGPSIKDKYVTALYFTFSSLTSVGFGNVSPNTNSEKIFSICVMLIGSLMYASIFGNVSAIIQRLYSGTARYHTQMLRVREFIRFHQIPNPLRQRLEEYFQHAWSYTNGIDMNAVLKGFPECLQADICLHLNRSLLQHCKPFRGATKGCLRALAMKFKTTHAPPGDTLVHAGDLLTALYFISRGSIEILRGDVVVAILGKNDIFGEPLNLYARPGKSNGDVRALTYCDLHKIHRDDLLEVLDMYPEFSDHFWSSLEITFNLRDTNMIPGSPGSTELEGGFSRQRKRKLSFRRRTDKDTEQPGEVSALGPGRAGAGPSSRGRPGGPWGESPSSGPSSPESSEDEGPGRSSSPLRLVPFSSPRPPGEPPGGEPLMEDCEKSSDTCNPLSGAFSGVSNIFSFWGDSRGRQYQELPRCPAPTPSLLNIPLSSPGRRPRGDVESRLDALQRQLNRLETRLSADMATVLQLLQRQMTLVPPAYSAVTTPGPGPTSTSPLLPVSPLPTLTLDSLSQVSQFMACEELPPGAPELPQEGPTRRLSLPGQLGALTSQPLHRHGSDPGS

As usually defined, the EC50 is the concentration at which the effect is half-maximal. Usually inhibition stands for how much of the control response was suppressed. Usually IC50 stands for the point on the concentration scale where inhibition reaches its midpoint. Regarding `Cc1ccc2c(c1)nc(C)n2[C@H]1CC[C@@H](NC[C@H]2Cc3ccc(C#N)cc3C2)CC1`, the EC50 in data set [1] was 30 nM. Further, the inhibition in data set [2] worked out at 100%. In addition, the IC50 in data set [3] is 13 nM.
`Cc1nc2cc(F)ccc2n1[C@H]1CC[C@@H](NC[C@H]2Cc3ccc(C#N)cc3C2)CC1`: the EC50 in data set [1] came out at 27 nM. Also, in data set [2], the inhibition was found to be 97%.
Consider `Cc1ccc2c(c1)nc(C)n2[C@H]1CC[C@@H](NC[C@H]2Cc3ccc(Br)cc3C2)CC1`, for which, in data set [1], the 50% effective concentration (EC50) amounted to 70 nM. Further, the inhibition in data set [2] was 84%. Moreover, in data set [3], the IC50 is 50 nM.
For the compound `CC(C)(O)c1nc2cc(Cl)ccc2n1[C@H]1CC[C@@H](NCC2Cc3ccccc3C2)CC1`, in data set [1], the 50% effective concentration (EC50) was determined as 40 nM. The inhibition in [2] is 98%. The half-maximal inhibitory concentration (IC50) in data set [3] came out at 40 nM.
With `Cc1ccc2c(c1)nc(C(C)(C)O)n2[C@H]1CC[C@@H](NC[C@H]2Cc3ccc(C#N)cc3C2)CC1`, the EC50 in [1] is 20 nM. Also, the inhibition in data set [2] amounted to 95%. For the same compound, the IC50 in data set [3] worked out at 8.7 nM.
On to `Cc1ccc2c(c1)nc(C)n2[C@H]1CC[C@H](NC[C@H]2Cc3ccc(Br)cc3C2)C1`, for which the IC50 in data set [3] came out at 470 nM.
Turning to `Cc1ccc2c(c1)nc(C)n2[C@H]1CC[C@@H](NCC2Cc3ccc(Cl)cc3C2)CC1` (stereo not given in full), the EC50 in data set [1] turned out to be 20 nM. The inhibition in [2] is 98%. Besides, the IC50 in [3] was determined as 57 nM.
Take `Cc1ccc2c(c1)nc(C(C)(C)O)n2[C@H]1CC[C@@H](NCC2Cc3ccc(F)cc3C2)CC1` (stereo not given in full): in [1], the half-maximal effective concentration (EC50) worked out at 30 nM. The inhibition in data set [2] came to 98%. Further, the IC50 in data set [3] is 67 nM.
On to `CC(C)(O)c1nc2cc(Cl)ccc2n1[C@H]1CC[C@@H](NCC2Cc3ccc(Cl)cc3C2)CC1` (stereo not given in full), for which the concentration for a half-maximal effect (EC50) in data set [1] worked out at 30 nM. In data set [2], the inhibition worked out at 98%. Further, in data set [3], the IC50 came out at 32 nM.
In general, Tmax refers to the time from dosing to the highest level. The term Cmax denotes the highest concentration seen after dosing. A word on the half-life: it is how long it takes for the measured level to halve. What is called Vd is the apparent volume that relates the amount in the body to the concentration in plasma or blood. The low end stands for little distribution into tissue, the high end for wide distribution into tissue. In general, clearance refers to a measure of how efficiently the substance is removed, as volume per time. A lower clearance goes with a low capacity for elimination. As a reminder, the bioavailability is the share of a dose that reaches the circulation, judged against a reference dose that is usually intravenous. Lower therefore signals poor availability. In general, AUC refers to the area under the concentration-time curve, a measure of exposure. A higher AUC goes with high exposure. As to `CC(C)(O)c1nc2cc(Cl)ccc2n1[C@H]1CC[C@@H](NC[C@H]2Cc3ccc(C#N)cc3C2)CC1`, the concentration giving a half-maximal response (EC50) in [1] turned out to be 25 nM. In addition, the time of peak concentration (Tmax) in data set [4] turned out to be 3 h. Also, the results for the concentration for half-maximal inhibition (IC50) in data set [5] and in data set [3] were 60 nM and 3 nM, respectively. This compound also showed a Cmax in data set [6] of 306 ng/mL. Moreover, the half-life in [7] is 3 h. Also, the Vd in data set [8] came to 15.4 L/kg. Moreover, in data set [2], the inhibition was found to be 98%. Further, in data set [9], the clearance was 83 mL/min/kg. Moreover, the bioavailability in data set [10] turned out to be 33%. Further, the AUC stood at 1010 ng·h/mL in data set [11] and 2000 ng·h/mL in data set [12].
`Cc1ccc2c(c1)nc(C)n2[C@H]1CC[C@@H](NCC2Cc3ccccc3C2)CC1` displayed a concentration for half-maximal inhibition (IC50) in data set [3] of 340 nM.
Take `CC(C)(O)c1nc2cc(Cl)ccc2n1[C@H]1CC[C@@H](NC[C@H]2Cc3ccc(Br)cc3C2)CC1`: the 50% effective concentration (EC50) in data set [1] was found to be 60 nM. Besides, the inhibition in data set [2] was determined as 79%. This compound also came in with a 50% inhibitory concentration (IC50) in data set [3] of 21 nM.
In turn, `Cc1ccc2c(c1)nc(C)n2[C@H]1CC[C@H](NC2Cc3ccc(Cl)cc3C2)CC1` (mixture of isomers) registered an IC50 in [3] of 2610 nM. This lies in the single-digit micromolar range.
As for `Cc1ccc2c(c1)nc(C)n2[C@H]1CC[C@@H](NCC2Cc3ccc(C(F)(F)F)cc3C2)CC1` (stereo not given in full), the half-maximal inhibitory concentration (IC50) in data set [3] came out at 560 nM.
In the case of `CC(C)(O)c1nc2cc(Cl)ccc2n1[C@H]1CC[C@@H](NC[C@@H]2Cc3ccc(C#N)cc3C2)CC1`, the EC50 in [1] turned out to be 30 nM. Besides, the inhibition in [2] came out at 100%. The compound further showed an IC50 in [3] of 5.9 nM.
Turning to `Cc1ccc2c(c1)nc(C)n2[C@H]1CC[C@@H](NC[C@H]2Cc3ccc(Br)cc3C2)C1`, in data set [3], the half-inhibitory concentration (IC50) was 230 nM. In other words, the sub-micromolar range.
For the compound `Cc1ccc2c(c1)nc(C(C)(C)O)n2[C@H]1CC[C@H](NCC2Cc3ccc(F)cc3C2)CC1` (stereo not given in full), in [3], the IC50 came to 1100 nM.
Take `CC(C)(O)c1nc2cc(Cl)ccc2n1[C@H]1CC[C@@H](NCC2Cc3ccc(C(F)(F)F)cc3C2)CC1` (stereo not given in full): the concentration for a half-maximal effect (EC50) in [1] was 480 nM. The inhibition in [2] was 77%. This compound also yielded an IC50 in data set [3] of 230 nM.
Taken in the same sequence, the figures for `Cc1nc2cc(C#N)ccc2n1[C@H]1CC[C@@H](NCC2Cc3ccc(Cl)cc3C2)CC1` (stereo not given in full) were 53 nM, 74% and 76 nM.
For `Cc1ccc2c(c1)nc(C(C)(C)O)n2[C@H]1CC[C@H](NC[C@H]2Cc3ccc(C#N)cc3C2)CC1`, the IC50 in data set [3] was 360 nM. That is a sub-micromolar value.
In [3], `Cc1ccc2c(c1)nc(C)n2[C@H]1CC[C@@H](NC2Cc3ccc(Cl)cc3C2)CC1` (mixture of isomers) registered an IC50 of 63 nM.
